Measurements as given in US20190072567A1, “METHOD OF DETECTING LC3B EXPRESSION IN EXOSOMES EXTRACTED FROM LIQUID BIOLOGICAL SAMPLES” (University of Cincinnati, priority 2017, published 2019).
Entries after “also recorded” stand apart in the source; their conditions may differ.

What was measured:
HEK293 cells = experiment: Annexin V cell survival assay by flow cytometry; assay type: cell-based, human
Description: HEK293 cells were plated in 10 cm culture dishes in 10% FBS DMEM media. Media was replaced with dFBS DMEM once 40% confluence was reached and cells were incubated for 24 h. Cells were treated with the following concentrations of agents: Gem 20 μM concentration (Gem^20), CQ 10 μM (CQ^10) and 20 μM (CQ^20) concentrations, and in combinations (wherein Gem was administered at 20 μM but CQ concentration varied) as follows: Gem+CQ^10 and Gem+CQ^20. Cells were treated in fresh dFBS DMEM media for 16 h. Cells and media were collected, centrifuged, and washed and stained with propedium iodide (PI) and annexin V prior to running samples. Cell cycle analysis was performed using fresh cells on a FACS Calibur (Becton Dickinson) after incubation with 25 μg/ml PI. Cell cycle phases were analyzed with the CellQuest-Pro software program (Becton Dickinson).
The effect of autophagy inhibitor CQ was examined via a cell survival assay by flow cytometry using annexin V (FIG. 8).
HEK293 cells were plated in 6 well cell culture plates and treated with control (A), Gem 20 μM (B), CQ 10 μM (C), CQ 20 μM (D), Gem 20 μM+CQ 10 μM (E), and Gem 20 μM+CQ 20 μM (F). Cells treated with CQ at both concentrations had increased expression of phosphatidyl serine compared to control from 10% up to almost 17% (C,E). Cells treated with Gem 20 μM alone had only 8.2% apoptotic cells (B).

LC3B [1] = experiment: Western blot of LC3B in U251 cells and in exosomes extracted from cell media; assay type: cell-based, human; details: for LC3B-II band in cells: cells treated with chloroquine, whole cell / total cell extracts (U251); for LC3B-II band in exosomes: exosomes isolated from U251 cells treated with CQ
Description: Three cell lines were used in the studies disclosed herein. U251, a human glioblastoma cell line, MiaPaCa2, a human pancreatic carcinoma cell line, and HEK293, a human embryonic kidney cell line. A variety of cell lines were selected in order to compare results for cells having different baseline autophagic activities. Cells were maintained in DMEM culture media supplemented with 10% fetal bovine serum (FBS), antimycotic, and L-glutamine. At 40% confluence, culture dishes were washed twice with PBS and media was replaced with 10% exosome depleted FBS (dFBS). DMEM media (50 ml EXO-FBS™ Exosome Depleted FBS media, System Biosciences) and incubated to settle for 24 h. After 24 h, culture dishes were washed with PBS and new dFBS DMEM media was added and treated with chloroquine diphosphate salt (Sigma Aldrich, UK) and incubated. Incubation period was 48 h for western blot on HEK293 plates and 72 h for western blot of U251 cells. Incubation varied according to plate confluency, CQ concentration, and expected number of exosomes secreted by the cell line. Media was collected and used for exosome extraction directly after incubation period concluded. Exosome Extraction from Patient Plasma
Exosomes were extracted from freshly collected cell culture media using exosome precipitation reagent (Total Exosome Isolation from cell culture media, Invitrogen by Life Technologies) following manufacturer instructions. Briefly, exosome extraction reagent is added to cell culture media and the solution is incubated overnight at 2-8° C. Precipitated exosomes are recovered by standard centrifugation at 10,000×g for 60 min. Extracted exosomes were suspended in phosphate buffered saline (PBS) and stored at −80° C.
Detection of LC3B expression in isolated exosomes was completed using western blotting standard protocols. Briefly, gel electrophoresis was used to separate proteins by size and/or structure. Proteins were then transferred to a membrane (polyvinylidene fluoride or nitrocellulose are suitable for use) and blocked with blocking buffer to prevent non-specific antibody binding. Membranes were incubated with anti-LC3B antibody to target LC3B-I and LC3B-II. LI-COR detection (LI-COR Biotechnology, USA) was employed to visualize target proteins. LC3B protein detection was achieved by anti-LC3B rabbit monoclonal antibody (Cell Signaling Inc., USA). CD9 was used as a loading control and was detected using rabbit monoclonal antibody (Cell Signaling Inc., USA). All western blots were run on 5-15% gradient gels after estimating and unifying sample protein content by bicinchoninic acid assay (BCA).
Quantification of LC3B-I and LC3B-II by western blot was compared in U251 cells, exosomes extracted from cell media, patient peripheral blood, and HEK293 cells (FIG. 1). U251 and HEK293 cells were treated with CQ to induce exosome secretion. Both cells and exosomes extracted from cellular media were analyzed. A peripheral blood sample was obtained from a patient undergoing Gem/Carb treatment, with a −7 daily pretreatment with CQ. Exosomes were isolated from the patient's plasma sample.

LC3B [2] = experiment: Western blot of LC3B in exosomes extracted from MiaPaCa2 cells; assay type: cell-based, human
Description: U251, a human glioblastoma cell line, MiaPaCa2, a human pancreatic carcinoma cell line, and HEK293, a human embryonic kidney cell line. […] Cells were maintained in DMEM culture media supplemented with 10% fetal bovine serum (FBS), antimycotic, and L-glutamine. At 40% confluence, culture dishes were washed twice with PBS and media was replaced with 10% exosome depleted FBS (dFBS). DMEM media (50 ml EXO-FBS™ Exosome Depleted FBS media, System Biosciences) and incubated to settle for 24 h. After 24 h, culture dishes were washed with PBS and new dFBS DMEM media was added and treated with chloroquine diphosphate salt (Sigma Aldrich, UK) and incubated. […] Incubation varied according to plate confluency, CQ concentration, and expected number of exosomes secreted by the cell line. Media was collected and used for exosome extraction directly after incubation period concluded.
Detection of LC3B expression in isolated exosomes was completed using western blotting standard protocols. Briefly, gel electrophoresis was used to separate proteins by size and/or structure. Proteins were then transferred to a membrane (polyvinylidene fluoride or nitrocellulose are suitable for use) and blocked with blocking buffer to prevent non-specific antibody binding. Membranes were incubated with anti-LC3B antibody to target LC3B-I and LC3B-II. LI-COR detection (LI-COR Biotechnology, USA) was employed to visualize target proteins. […] CD9 was used as a loading control and was detected using rabbit monoclonal antibody (Cell Signaling Inc., USA). […]

LC3B [3] = experiment: Western blot of LC3B in exosomes extracted from patient plasma; assay type: in vivo, human; details: patients, Gem/Carb regimen + CQ 100 mg/day
Description: The study included 12 patients who were included within cohorts 1-3 of the approved phase I clinical trial (ClinicalTrials.gov Identifier NCT02071537). […] All subjects were consented before treatment and sample collection. All patients were heavily pretreated with anti-cancer therapeutics, with the exception of one patient who was enrolled to receive therapy with carboplatin/gemcitabine as part of the standard-of-care, in addition to the study CQ.
All 12 patients received Gem/Carb for from one to four cycles at standard doses, wherein the first three patients of cohort one received Gem 1200 mg/m2 and the remaining three patients of cohort one received 1200 mg/m^2 (Gem dose decreased in some patients due to heavy pretreatment, in order to avoid high toxicity profile). Carboplatin was received as area under the curve (AUC) 5 and dose modifications were permitted. […] The first 6 patients received 50 mg CQ daily. When well tolerated, the dose was increased by 50 mg increments to 100 mg/day (3 patients) and 150 mg/day (3 patients). All candidates began taking CQ orally 7 days prior to chemotherapy (day −7) and continued taking CQ daily throughout four cycles of Gem/Carb. […]
Detection of LC3B expression in isolated exosomes was completed using western blotting standard protocols. […] CD9 was used as a loading control and was detected using rabbit monoclonal antibody (Cell Signaling Inc., USA). […]

Compound | apoptotic cells (HEK293 cells; 10 μM CQ, 16 h) [%] | distribution of cell population (HEK293 cells; 20 μM CQ compared with 10 μM CQ) | expression of phosphatidyl serine (apoptotic cells) (HEK293 cells; CQ at both concentrations (10 μM, 20 μM), control 10%) [%] | LC3B-II band in cells (LC3B [1]) | LC3B-II band in cells (LC3B [1]; listed as chloroquine) | LC3B-I bands in exosomes (LC3B [1]; exosomes from cells treated with chloroquine) | LC3B-II band in exosomes (LC3B [1]) | LC3B-II band in exosomes (LC3B [1]; listed as chloroquine) | LC3B-II expression in exosomes (LC3B [2]; CQ 50 μM) | LC3B expression in plasma extracted exosomes (LC3B [3]) | early apoptotic cells (HEK293 cells; 20 μM Gem, 16 h) [%] | live cells (HEK293 cells; 20 μM Gem, 16 h) [%] | main cell population (HEK293 cells; Gem 20 μM) | apoptotic cells (HEK293 cells; Gem 20 μM alone, 16 h) [%] | LC3B band intensity in exosomes (LC3B [2]; Gemcitabine 20 μM alone)
CCN(CC)CCCC(C)Nc1ccnc2cc(Cl)ccc12 (stereo not drawn) [CQ, chloroquine] | 17 | decreased both live and necrotic cells in favor of early apoptotic and apoptotic cells | ~17 | prominent in both CQ-treated and CQ-untreated samples | increase in LC3B-II band thickness | lacks LC3B-I bands | detected | clear LC3B-II band | clear expression of LC3B-II | first detected at 6h, with peak detection on day 15 |  |  |  |  | 
Nc1ccn([C@@H]2O[C@H](CO)[C@@H](O)C2(F)F)c(=O)n1 [Gem, gemcitabine] |  |  |  |  |  |  |  |  |  |  | 56.3 | 29.3 | early apoptotic phase | 8.2 | significantly less intense bands for both forms of LC3B; also recorded: comparatively less intense band
